Reference: patent US12384797B2, “Thioeno[3,2-b] pyridin-7-amine compounds for treating familial dysautonomia” (PTC THERAPEUTICS, INC., priority 2019, dated 2025)

system: Elongator complex protein 1 (ELP1, also referred to as IKBKAP); assay: IKBKAP-HTRF assay (IKBKAP protein in lysates of FD patient-derived fibroblasts); format: cell-based, human; settings: 48 hours incubation, 7-point concentration curve
Outline: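 Sandwich HTRF with two labelled anti-IKAP antibodies (overnight, 4 °C) measured IKBKAP in lysates of FD patient fibroblasts. Cells were exposed to compound for 48 h at 37 °C (7-point curve, 3.16-fold steps, triplicates). EC2x is the dose doubling IKBKAP versus DMSO control; MFI is sample ΔF divided by vehicle ΔF.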

| SMILES | EC2x for IKBKAP protein expression (concentration producing two times the amount of IKBKAP protein vs DMSO vehicle control) | MFI (maximum fold increase in IKBKAP protein abundance relative to the vehicle control) |
| --- | --- | --- |
| C[C@H](N)C(O)c1sc2c(NCc3nccs3)cc(Cl)nc2c1Br (stereo partly drawn) [Compound 159, (2S)-2-amino-1-(3-bromo-5-chloro-7-{[(1,3-thiazol-2-yl)methyl]amino}thieno[3,2-b]pyridin-2-yl)propan-1-ol] | *** (between >0.02 μM and ≤0.5 μM is indicated by three stars (***)) | ** (between >1.9 and ≤2.9 is indicated by two stars (**)) |
| C[C@H](N)Cc1sc2c(NCc3ccco3)cc(Cl)nc2c1Br [Compound 37, 2-[(2S)-2-aminopropyl]-3-bromo-5-chloro-N-[(furan-2-yl)methyl]thieno[3,2-b]pyridin-7-amine] | ***** (≤0.005 μM is indicated by five stars (*****)) | ***** (>4.9 is indicated by five stars (*****)) |
| Clc1cc(NCc2ccco2)c2scc(Cl)c2n1 [Compound 6, 3,5-dichloro-N-[(furan-2-yl)methyl]thieno[3,2-b]pyridin-7-amine] | *** (between >0.02 μM and ≤0.5 μM is indicated by three stars (***)) | ***** (>4.9 is indicated by five stars (*****)) |
| C[C@H](N)C(O)c1sc2c(NCc3cccs3)cc(Cl)nc2c1Cl (stereo partly drawn) [Compound 127, (2S)-2-amino-1-(3,5-dichloro-7-{[(thiophen-2-yl)methyl]amino}thieno[3,2-b]pyridin-2-yl)propan-1-ol] | **** (between >0.005 μM and ≤0.02 μM is indicated by four stars (****)) | ***** (>4.9 is indicated by five stars (*****)) |
| CN[C@H](c1sc2c(NCc3ccco3)cc(Cl)nc2c1C)C(C)C [Compound 32, 5-chloro-N-[(furan-2-yl)methyl]-3-methyl-2-[(1S)-2-methyl-1-(methylamino)propyl]thieno[3,2-b]pyridin-7-amine] | * (An EC2x>1 μM is indicated by one star (*)) | * (An MFI≤1.9 is indicated by one star (*)) |
| COc1c(C[C@H](C)N)sc2c(NCc3ccco3)cc(Cl)nc12 [Compound 136, 2-[(2S)-2-aminopropyl]-5-chloro-N-[(furan-2-yl)methyl]-3-methoxythieno[3,2-b]pyridin-7-amine] | ***** (≤0.005 μM is indicated by five stars (*****)) | ***** (>4.9 is indicated by five stars (*****)) |
| CSC[C@H](N)Cc1sc2c(NCc3ccco3)cc(Cl)nc2c1C [Compound 104, 2-[(2R)-2-amino-3-(methylsulfanyl)propyl]-5-chloro-N-[(furan-2-yl)methyl]-3-methylthieno[3,2-b]pyridin-7-amine] | ***** (≤0.005 μM is indicated by five stars (*****)) | ***** (>4.9 is indicated by five stars (*****)) |
| CSC[C@H](N)Cc1sc2c(NCc3ccco3)cc(Cl)nc2c1Br [Compound 118, 2-[(2R)-2-amino-3-(methylsulfanyl)propyl]-3-bromo-5-chloro-N-[(furan-2-yl)methyl]thieno[3,2-b]pyridin-7-amine] | ***** (≤0.005 μM is indicated by five stars (*****)) | ***** (>4.9 is indicated by five stars (*****)) |
| N[C@@H](COC(F)(F)F)Cc1sc2c(NCc3nccs3)cc(Cl)nc2c1Br [Compound 64, 2-[(2R)-2-amino-3-(trifluoromethoxy)propyl]-3-bromo-5-chloro-N-[(1,3-thiazol-2-yl)methyl]thieno[3,2-b]pyridin-7-amine] | **** (between >0.005 μM and ≤0.02 μM is indicated by four stars (****)) | ***** (>4.9 is indicated by five stars (*****)) |
| N[C@@H](CF)Cc1sc2c(NCc3nccs3)cc(Cl)nc2c1Cl [Compound 90, 2-[(2R)-2-amino-3-fluoropropyl]-3,5-dichloro-N-[(1,3-thiazol-2-yl)methyl]thieno[3,2-b]pyridin-7-amine] | ***** (≤0.005 μM is indicated by five stars (*****)) | ***** (>4.9 is indicated by five stars (*****)) |
| Cc1ccc(NC(=O)[C@H](N)Cc2sc3c(NCc4ccco4)cc(Cl)nc3c2C)cc1 [Compound 142, 3-(5-chloro-7-{[(furan-2-yl)methyl]amino}-3-methylthieno[3,2-b]pyridin-2-yl)-N-(4-methylphenyl)-D-alaninamide] | **** (between >0.005 μM and ≤0.02 μM is indicated by four stars (****)) | ***** (>4.9 is indicated by five stars (*****)) |
| C=C[C@H](N)Cc1cc2nc(Cl)cc(NCc3ccco3)c2s1 [Compound 119, 2-[(2R)-2-aminobut-3-en-1-yl]-5-chloro-N-[(furan-2-yl)methyl]thieno[3,2-b]pyridin-7-amine] | **** (between >0.005 μM and ≤0.02 μM is indicated by four stars (****)) | **** (between >3.9 and ≤4.9 is indicated by four stars (****)) |
| C[C@H](N)c1cc2nc(Cl)cc(NCc3ccco3)c2s1 [Compound 24, 2-[(1S)-1-aminoethyl]-5-chloro-N-[(furan-2-yl)methyl]thieno[3,2-b]pyridin-7-amine] | * (An EC2x>1 μM is indicated by one star (*)) | ** (between >1.9 and ≤2.9 is indicated by two stars (**)) |
| Cc1c(C[C@@H](N)CO)sc2c(NCc3ccco3)cc(Cl)nc12 [Compound 58, (2R)-2-amino-3-(5-chloro-7-{[(furan-2-yl)methyl]amino}-3-methylthieno[3,2-b]pyridin-2-yl)propan-1-ol] | ***** (≤0.005 μM is indicated by five stars (*****)) | ***** (>4.9 is indicated by five stars (*****)) |
| OC[C@@H](Cc1sc2c(NCc3nccs3)cc(Cl)nc2c1Br)NC(F)(F)F [Compound 65, (2R)-3-(3-bromo-5-chloro-7-{[(1,3-thiazol-2-yl)methyl]amino}thieno[3,2-b]pyridin-2-yl)-2-[(trifluoromethyl)amino]propan-1-ol] | *** (between >0.02 μM and ≤0.5 μM is indicated by three stars (***)) | ***** (>4.9 is indicated by five stars (*****)) |
| C[C@H](N)Cc1sc2c(NCc3ccco3)cc(Cl)nc2c1Cl [Compound 36, 2-[(2S)-2-aminopropyl]-3,5-dichloro-N-[(furan-2-yl)methyl]thieno[3,2-b]pyridin-7-amine] | ***** (≤0.005 μM is indicated by five stars (*****)) | ***** (>4.9 is indicated by five stars (*****)) |
| Cc1cc(NCc2nccs2)c2sc(C[C@H](C)N)c(Cl)c2n1 [Compound 60, 2-[(2S)-2-aminopropyl]-3-chloro-5-methyl-N-[(1,3-thiazol-2-yl)methyl]thieno[3,2-b]pyridin-7-amine] | **** (between >0.005 μM and ≤0.02 μM is indicated by four stars (****)) | ***** (>4.9 is indicated by five stars (*****)) |
| N[C@@H](CCF)Cc1sc2c(NCc3ccco3)cc(Cl)nc2c1Br [Compound 97, 2-[(2S)-2-amino-4-fluorobutyl]-3-bromo-5-chloro-N-[(furan-2-yl)methyl]thieno[3,2-b]pyridin-7-amine] | ***** (≤0.005 μM is indicated by five stars (*****)) | ***** (>4.9 is indicated by five stars (*****)) |
| C[C@H](N)Cc1sc2c(NCc3nccs3)cc(Cl)nc2c1Br [Compound 43, 2-[(2S)-2-aminopropyl]-3-bromo-5-chloro-N-[(1,3-thiazol-2-yl)methyl]thieno[3,2-b]pyridin-7-amine] | ***** (≤0.005 μM is indicated by five stars (*****)) | ***** (>4.9 is indicated by five stars (*****)) |
| C[C@@H](N)c1cc2nc(Cl)cc(NCc3ccco3)c2s1 [Compound 23, 2-[(1R)-1-aminoethyl]-5-chloro-N-[(furan-2-yl)methyl]thieno[3,2-b]pyridin-7-amine] | * (An EC2x>1 μM is indicated by one star (*)) | ** (between >1.9 and ≤2.9 is indicated by two stars (**)) |
| Cc1c([C@@H](C)[C@H](C)N)sc2c(NCc3ccco3)cc(Cl)nc12 [Compound 151, 2-[(2S,3S)-3-aminobutan-2-yl]-5-chloro-N-[(furan-2-yl)methyl]-3-methylthieno[3,2-b]pyridin-7-amine] | *** (between >0.02 μM and ≤0.5 μM is indicated by three stars (***)) | ** (between >1.9 and ≤2.9 is indicated by two stars (**)) |
